From patent US7119256B2, “Gene encoding acetolactate synthase” (priority 2000, dated 2006)

What was measured:
[1] = test system: wild type (Kinmaze) culture cells; assay: Growth of wild type rice (Kinmaze) culture cells in liquid medium with herbicide (relative wet weight); format: cell-based, Oryza sativa var. Kinmaze
Protocol: (§1) Approximately 1.5 g (wet weight) of the resistant mutant was transplanted in 200 ml of a Erlenmeyer flask supplemented with 50 ml of a MS-2,4-D liquid medium and bispyribac-sodium at an appropriate concentration, followed by culturing at approximately 27° C. for an appropriate period. The wet weight of the callus was measured periodically. The relative amount of increase was determined based on the wet weight of the transplanted resistant mutant. In addition, the experiment was performed three times with different bispyribac-sodium concentrations, and the standard error was calculated. […] As a control, a similar experiment was conducted using the wild type (Kinmaze).
(§2) The growth rates of the wild type and the resistant mutant were measured as described above except for the use of chlorsulfuron instead of bispyribac-sodium.

[2] = test system: resistant mutant culture cells; assay: Growth of bispyribac-sodium resistant rice culture cells (resistant mutant) with herbicide (relative wet weight); format: cell-based, Oryza sativa var. Kinmaze
Protocol: Subsequently, the resulting plurality of cell lines were cultured while elevating the concentration of bispyribac-sodium in an orderly manner. […] The bispyribac-sodium resistant culture cells (hereinafter referred to as resistant mutant) were sub-cultured on MS-2,4-D solid media supplemented with 100 μM bispyribac-sodium. Part of the sub-cultured resistant mutant was sampled, added into MS-2,4-D liquid media not supplemented with bispyribac-sodium, and then subjected to suspended cell culture at a cycle of 8 to 10 days.
as §1, §2

mutant ALS protein = assay: Herbicide sensitivity of ALS partially purified from the resistant mutant (acetoin colorimetric ALS activity); format: biochemical, rice (Kinmaze)
Protocol: First, 200 g or more of resistant mutant was prepared by a liquid culture method (no supplementation with bispyribac-sodium), the culture having a composition as shown in Table 1 but without Gelrite. Then, about 150 g of the resistant mutant was homogenized using Hiscotron in a volume of buffer-1 [100 mM potassium phosphate buffer (pH 7.5) containing 20% (v/v) glycerol, 0.5 mM thiamin pyrophosphate (TPP), 10 μM flavin adenine dinucleotide (FAD), 0.5 mM MgCl2, and a volume of polyvinyl polypyrrolidone one-tenth that of tissue volume] 3-fold greater than tissue volume. The homogenate was filtered through nylon gauze, and then centrifuged at 15,000×g for 20 min. Ammonium sulfate was added to the centrifuged supernatant to 50% saturation, and then allowed to stand in ice for approximately 1 hour. The mixture was again centrifuged at 15,000×g for 20 min, and then the precipitated fraction was dissolved in about 30 ml of buffer-2 [10 mM Tris hydrochloric acid buffer (pH 7.5) containing 20% (v/v) glycerol, 0.5 mM TPP and 0.5 mM MgCl2]. […]
Next, the protein concentration of the crude enzyme solution was measured by the Bradford method according to the manual of Bio-Rad Protein Assay. […]
ALS activity resulting from the mutant ALS protein contained in the eluted fractions apportioned into each test tube for apportion was measured as follows. A reaction solution to be used in a measurement reaction was prepared by mixing an eluted fraction to be measured with a solution comprising 20 mM sodium pyruvate, 0.5 mM TPP, 0.5 mM MgCl2, 10 μM FAD and 20 mM potassium phosphate buffer (pH 7.5). […] After the eluted fraction to be measured was added, the measurement reaction was performed at 30° C. for 40 to 60 min. […]
Then, to quantify acetoin contained in the reaction solution, 1 ml of 0.5% (w/v) creatine and 1 ml of 5% (w/v) α-naphthol dissolved in 2.5 N sodium hydroxide was added to the reaction solution, followed by incubation at 37° C. for 10 min. Acetoin was then quantified by color comparison of the absorbance (at 525 nm) of the reaction solution, thereby evaluating ALS activity. […]

W548L mutant ALS = biological target: T1, W548L mutant ALS (Oryza sativa subsp. japonica, UniProt Q6K2E8, W548L); assay: Herbicide sensitivity of crude ALS with W548L mutation only, 1 mM valine; format: biochemical, rice; details: crude enzyme
T1 construct: one type of cDNA containing a full length ALS gene could be obtained from a cDNA library derived from the wild type; made in house; host or cells: E. coli JM 109, pGEX-2T backbone (pGEX-2T-wALS); crude enzyme solution
Protocol: A plasmid having W548L mutant ALS gene or a plasmid having S627I mutant ALS gene was transformed into E. coli strain JM 109. The colonies obtained from transformation were subjected to liquid culture, expression of GST induction protein was induced in the same manner as in Examples 4 and 5, a crude enzyme solution was prepared, and then herbicide sensitivity of ALS was examined in the presence of 1 mM valine.

T1 sequence (Q6K2E8 44-644 W548L): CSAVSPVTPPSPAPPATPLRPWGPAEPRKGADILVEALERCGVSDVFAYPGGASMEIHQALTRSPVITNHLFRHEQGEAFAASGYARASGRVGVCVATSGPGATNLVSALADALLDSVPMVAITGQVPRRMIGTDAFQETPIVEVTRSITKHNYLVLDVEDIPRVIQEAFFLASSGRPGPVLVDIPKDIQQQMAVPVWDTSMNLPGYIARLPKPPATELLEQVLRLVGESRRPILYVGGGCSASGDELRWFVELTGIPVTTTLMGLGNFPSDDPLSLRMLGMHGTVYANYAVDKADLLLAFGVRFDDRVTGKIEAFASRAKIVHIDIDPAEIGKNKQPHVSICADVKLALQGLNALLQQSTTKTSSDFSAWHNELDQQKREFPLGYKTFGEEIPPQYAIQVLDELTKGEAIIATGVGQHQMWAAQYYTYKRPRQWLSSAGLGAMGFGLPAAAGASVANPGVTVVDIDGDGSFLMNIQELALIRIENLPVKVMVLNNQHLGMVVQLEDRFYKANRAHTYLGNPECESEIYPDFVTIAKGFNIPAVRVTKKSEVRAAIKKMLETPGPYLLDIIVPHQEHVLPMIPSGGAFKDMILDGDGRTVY

| SMILES | growth of the wild type (relative weight on day 8) ([1]; 1 nM bispyribac-sodium) | growth of the wild type (relative weight on day 8) ([1]; 10 nM or more bispyribac-sodium) | growth of the resistant mutant (relative weight on day 8) ([2]; 10 μM bispyribac-sodium) | proliferation of resistant cell lines in the presence of herbicide ([2]; 100 μM bispyribac-sodium) | RS ratio Resistant mutant: I50 (resistant mutant)/I50 (wild type) (mutant ALS protein) | resistance imparted by W548L mutation alone (W548L mutant ALS) | growth of the wild type (relative weight on day 9) ([1]; 1 nM chlorsulfuron) | growth of the resistant mutant (relative weight on day 9) ([2]; 1 μM chlorsulfuron) |
| --- | --- | --- | --- | --- | --- | --- | --- | --- |
| COc1cc(OC)nc(Oc2cccc(Oc3nc(OC)cc(OC)n3)c2C(=O)[O-])n1.[Na+] [Bispyribac-sodium, bispyribac-sodium] | not inhibited | inhibited | almost none of the growth of the resistant mutant was affected | can proliferate | 74.8 | imparted resistance |  |  |
| COc1nc(C)nc(NC(=O)NS(=O)(=O)c2ccccc2Cl)n1 [Chlorsulfuron, chlorsulfuron] |  |  |  |  | 5.36 | imparted resistance | inhibited | strongly inhibited |
